This assay has as its target IRAK4 (Homo sapiens (Human), UniProt Q9NWZ3). Kind of assay: IRAK4 Inhibition Assay. The class given is biochemical. To be noted: ATP 500 μM; IRAK4 0.6 nM. Here is the method:
The assays were performed in U-bottom 384-well plates. The final assay volume was 30 μL prepared from 15 μL additions of enzyme and substrates (fluoresceinated peptide and ATP) and test compounds in assay buffer (20 mM HEPES pH 7.2, 10 mM MgCl2, 0.015% Brij 35 and 4 mM DTT). The reaction was initiated by the combination of IRAK4 with substrates and test compounds. The reaction mixture was incubated at room temperature for 60 min. and terminated by adding 45 μL of 35 mM EDTA to each sample. The reaction mixture was analyzed on the Caliper LABCHIP® 3000 (Caliper, Hopkinton, Mass.) by electrophoretic separation of the fluorescent substrate and phosphorylated product. Inhibition data were calculated by comparison to no enzyme control reactions for 100% inhibition and vehicle-only reactions for 0% inhibition. The final concentrations of reagents in the assays are ATP, 500 μM; FL-IPTSPITTTYFFFKKK peptide 1.5 μM; IRAK4, 0.6 nM; and DMSO, 1.6%.

Sequence of IRAK4 (Q9NWZ3 whole entry, species assumed): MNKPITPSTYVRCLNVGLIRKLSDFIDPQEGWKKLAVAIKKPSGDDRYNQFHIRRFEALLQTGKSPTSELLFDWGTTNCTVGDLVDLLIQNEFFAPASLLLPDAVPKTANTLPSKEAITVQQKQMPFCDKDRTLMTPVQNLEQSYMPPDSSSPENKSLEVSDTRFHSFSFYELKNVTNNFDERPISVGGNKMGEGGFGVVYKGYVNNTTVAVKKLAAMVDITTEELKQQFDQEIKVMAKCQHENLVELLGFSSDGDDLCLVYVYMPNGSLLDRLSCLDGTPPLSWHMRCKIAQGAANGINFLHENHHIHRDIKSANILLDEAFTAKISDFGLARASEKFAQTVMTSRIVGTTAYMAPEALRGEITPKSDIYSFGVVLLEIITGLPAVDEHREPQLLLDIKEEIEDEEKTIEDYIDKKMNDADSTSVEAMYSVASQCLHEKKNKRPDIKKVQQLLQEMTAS

As to `CC(C)Nc1cc(-n2ncc3cc(C#N)cnc32)ncc1-n1cc(C(C)(C)N)nn1` [Example 312, 1-(5-(4-(2-aminopropan-2-yl)-1H-1,2,3-triazol-1-yl)-4-(isopropylamino)pyridin-2-yl)-1H-pyrazolo[3,4-b]pyridine-5-carbonitrile], the IC50 (usually the concentration that gives 50% inhibition) was determined as 213 nM.

In the case of `Cc1nc2cc(Cn3cc(-c4cnc(-n5ncc6cc(C#N)cnc65)cc4NC(C)C)nn3)ccc2s1` [Example 106, 1-(4-(isopropylamino)-5-(1-((2-methylbenzo[d]thiazol-5-yl)methyl)-1H-1,2,3-triazol-4-yl)pyridin-2-yl)-1H-pyrazolo[3,4-b]pyridine-5-carbonitrile], the IC50 was 321 nM.

For `CC(C)Nc1cc(-n2ncc3cc(C#N)cnc32)ncc1-n1cc(C(N)=O)nn1` [Example 309, 1-(6-(5-cyano-1H-pyrazolo[3,4-b]pyridin-1-yl)-4-(isopropylamino)pyridin-3-yl)-1H-1,2,3-triazole-4-carboxamide], the IC50 amounted to 304 nM.

Turning to `CC(C)Nc1cc(-n2ncc3cc(C#N)cnc32)ncc1-c1cn(C[C@H](C)CO)cn1` [Example 228, (S)-1-(5-(1-(3-hydroxy-2-methylpropyl)-1H-imidazol-4-yl)-4-(isopropylamino)pyridin-2-yl)-1H-pyrazolo[3,4-b]pyridine-5-carbonitrile], the IC50 amounted to 19 nM.

As for `CC(=O)N1CC(n2cc(-c3cnc(-n4ncc5cc(Cl)cnc54)cc3NC(C)C)nn2)C1` [Example 155, 1-(3-(4-(6-(5-chloro-1H-pyrazolo[3,4-b]pyridin-1-yl)-4-(isopropylamino)pyridin-3-yl)-1H-1,2,3-triazol-1-yl)azetidin-1-yl)ethanone], the IC50 was determined as 6 nM.

`CC(C)Nc1cc(-n2ncc3cc(C#N)cnc32)ncc1-n1ccc(CC#N)n1` [Example 250, 1-(5-(3-(cyanomethyl)-1H-pyrazol-1-yl)-4-(isopropylamino)pyridin-2-yl)-1H-pyrazolo[3,4-b]pyridine-5-carbonitrile]: the IC50 was 196 nM.

As to `CC(C)Nc1cc(-n2ccc3cncnc32)ncc1-c1cn(CCOCCOCCOCCO)nn1` [Example 9, 2-(2-(2-(2-(4-(4-(isopropylamino)-6-(7H-pyrrolo[2,3-d]pyrimidin-7-yl)pyridin-3-yl)-1H-1,2,3-triazol-1-yl)ethoxy)ethoxy)ethoxy) ethanol], the half-maximal inhibitory concentration (IC50) was determined as 3 nM.

With `CCOC(=O)Cn1cc(-c2cnc(-n3ncc4cc(C#N)cnc43)cc2NC(C)C)nn1` [Example 98, Ethyl 2-(4-(6-(5-cyano-1H-pyrazolo[3,4-b]pyridin-1-yl)-4-(isopropylamino)pyridin-3-yl)-1H-1,2,3-triazol-1-yl)acetate], the IC50 worked out at 2 nM.

As for `CC(C)Nc1cc(-n2ncc3cc(C#N)cnc32)ncc1-n1cc(-c2cccnc2)nn1` [Example 299, 1-(4-(isopropylamino)-5-(4-(pyridin-3-yl)-1H-1,2,3-triazol-1-yl)pyridin-2-yl)-1H-pyrazolo[3,4-b]pyridine-5-carbonitrile], the concentration for half-maximal inhibition (IC50) is 44 nM.

Consider `COC(=O)N[C@H]1CC[C@H](c2cc(-c3cnc(-n4ncc5cc(C#N)cnc54)cc3NC(C)C)on2)CC1` [Example 411, methyl ((1s,4s)-4-(5-(6-(5-cyano-1H-pyrazolo[3,4-b]pyridin-1-yl)-4-(isopropylamino)pyridin-3-yl)isoxazol-3-yl)cyclohexyl)carbamate], for which the IC50 amounted to 3 nM.

Consider `CC(C)Nc1cc(-n2ncc3cc(C#N)cnc32)ncc1-c1cn(C2CCOCC2)nn1` [Example 19, 1-(4-(isopropylamino)-5-(1-(tetrahydro-2H-pyran-4-yl)-1H-1,2,3-triazol-4-yl)pyridin-2-yl)-1H-pyrazolo[3,4-b]pyridine-5-carbonitrile], for which the IC50 amounted to 1 nM.

Consider `CCn1cc(-c2cnc(-n3cnc4cc(C#N)cnc43)cc2NC(C)C)nn1` [Example 38, 3-(5-(1-ethyl-1H-1,2,3-triazol-4-yl)-4-(isopropylamino)pyridin-2-yl)-3H-imidazo[4,5-b]pyridine-6-carbonitrile], for which the IC50 came out at 10 nM.

As for `CC(C)Nc1cc(-n2ncc3cc(C#N)cnc32)ncc1-c1cn(CC#N)nn1` [Example 47, 1-(5-(1-(cyanomethyl)-1H-1,2,3-triazol-4-yl)-4-(isopropylamino)pyridin-2-yl)-1H-pyrazolo[3,4-b]pyridine-5-carbonitrile], the 50% inhibitory concentration (IC50) stood at 16 nM.

Turning to `CC(C)Nc1cc(-n2cnc3cc(C#N)cnc32)ncc1-c1cn(CC(C)(C)O)nn1` [Example 67, 3-(5-(1-(2-hydroxy-2-methylpropyl)-1H-1,2,3-triazol-4-yl)-4-(isopropylamino)pyridin-2-yl)-3H-imidazo[4,5-b]pyridine-6-carbonitrile], the IC50 turned out to be 32 nM.

On to `CC(C)Nc1cc(-n2ncc3cc(Cl)cnc32)ncc1-c1cn(CC2CC2)nn1` [Example 27, 2-(5-chloro-1H-pyrazolo [3,4-b]pyridin-1-yl)-5-(1-(cyclopropylmethyl)-1H-1,2,3-triazol-4-yl)-N-isopropylpyridin-4-amine], for which the IC50 worked out at 16 nM.

With `CC(C)Nc1cc(-n2ncc3cncnc32)ncc1-c1cnn(CC(F)(F)F)c1` [Example 262, N-isopropyl-2-(1H-pyrazolo[3,4-d]pyrimidin-1-yl)-5-(1-(2,2,2-trifluoroethyl)-1H-pyrazol-4-yl)pyridin-4-amine], the IC50 was found to be 288 nM.

As to `CC(C)Nc1cc(-n2ncc3cc(C#N)cnc32)ncc1-c1cnn(C2CCOCC2)c1` [Example 257, 1-(4-(isopropylamino)-5-(1-(tetrahydro-2H-pyran-4-yl)-1H-pyrazol-4-yl)pyridin-2-yl)-1H-pyrazolo[3,4-b]pyridine-5-carbonitrile], the IC50 amounted to 20 nM.

With `CCCc1cn(-c2cnc(-n3cnc4cc(C#N)cnc43)cc2N[C@H](C)CO)nn1` [Example 286, (R)-3-(4-((1-hydroxypropan-2-yl)amino)-5-(4-propyl-1H-1,2,3-triazol-1-yl)pyridin-2-yl)-3H-imidazo[4,5-b]pyridine-6-carbonitrile], the IC50 was found to be 157 nM.

`CC(C)Nc1cc(-n2ncc3cc(C#N)cnc32)ncc1-c1cn([C@@H]2O[C@H](CO)[C@H](O)[C@H](O)[C@H]2O)nn1` [Example 105, 1-(4-(isopropylamino)-5-(1-((2R,3R,4S,5R,6R)-3,4,5-trihydroxy-6-(hydroxymethyl)tetrahydro-2H-pyran-2-yl)-1H-1,2,3-triazol-4-yl)pyridin-2-yl)-1H-pyrazolo[3,4-b]pyridine-5-carbonitrile]: the IC50 is 55 nM.

For the compound `CCCc1cn(-c2cnc(-n3cnc4cc(C#N)cnc43)cc2NC2COC2)nn1` [Example 277, 3-(4-(oxetan-3-ylamino)-5-(4-propyl-1H-1,2,3-triazol-1-yl)pyridin-2-yl)-3H-imidazo[4,5-b]pyridine-6-carbonitrile], the concentration for half-maximal inhibition (IC50) worked out at 87 nM.

As for `CCNc1cc(-n2cnc3cc(C#N)cnc32)ncc1-c1cn(C[C@H](C)O)nn1` [Example 72, (S)-3-(4-(ethylamino)-5-(1-(2-hydroxypropyl)-1H-1,2,3-triazol-4-yl)pyridin-2-yl)-3H-imidazo [4,5-b]pyridine-6-carbonitrile], the IC50 came out at 52 nM.

Consider `CC(C)Nc1cc(-n2ncc3cc(C#N)cnc32)ncc1-c1cn(CC(=O)N2CCOCC2)cn1` [Example 231, 1-(4-(isopropylamino)-5-(1-(2-morpholino-2-oxoethyl)-1H-imidazol-4-yl)pyridin-2-yl)-1H-pyrazolo[3,4-b]pyridine-5-carbonitrile], for which the IC50 amounted to 21 nM.

Values taken from patent publication US10294229B2, “Heteroaryl substituted aminopyridine compounds” (BRISTOL-MYERS SQUIBB COMPANY, priority 2015, dated 2019).
